Consider 6 compounds from US20080242700A1, “Methods and Compositions for Selectin Inhibition” (Wyeth, priority 2007, published 2008).

Molecules are shown by their SMILES.

A word on the inhibition: it is the share of the control response that was lost under treatment. High values mean a strong effect, low ones a weak effect. Broadly, the IC50 is the concentration at which inhibition is half-maximal. A lower IC50 goes with greater potency in that assay.

One assay concerns the target T1, P-selectin/PSGL-1 interaction (Homo sapiens, UniProt P16109).
T1 construct: comprised of the lectin and epidermal growth factor-like (EGF) domains expressed in CHO cells; made in house; host or cells: CHO cells (P-LE)
T1 sequence (P16109 42-198): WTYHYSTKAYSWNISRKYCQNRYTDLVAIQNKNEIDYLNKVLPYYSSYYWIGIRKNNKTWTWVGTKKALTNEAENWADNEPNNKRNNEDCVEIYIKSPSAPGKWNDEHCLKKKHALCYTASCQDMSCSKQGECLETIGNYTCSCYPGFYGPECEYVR
The experiment in a line: Biacore P-selectin/PSGL-1 inhibition assay (surface plasmon resonance). The class given is binding. The conditions noted are these: 250 uM test compound; 500 nM P.LE; immobilized biotinylated PSGL-1 19ek; 10% DMSO; pH 7.4; 25° C. The protocol: Surface plasmon resonance assays were performed on a Biacore 3000 instrument (Biacore Inc. Piscataway, N.J.) at 25° C. at a flow rate of 30 μL/minute and each assay consisted of a 60-second equilibration, a 60-μL sample injection (kinject), and a 300-second dissociation.
A purified, monomeric, truncated form of human PSGL-1, “19ek”, that contained all the necessary P-selectin binding determinants (see Goetz, et al., J Cell Biol., 1997, 137: 509-519; and Sako, et al., Cell, 1995, 83: 323-331) was biotinylated via amine chemistry (Sulfo-NHS-LC-Biotin, Peirce) at a unique C-terminal lysine residue (see Somers, et al., Cell, 2000, 103: 467-479) and immobilized on a Biacore SA sensor chip (Biacore Inc.), using an HBS-EP buffer (Biacore Inc.), and the target 600-700 RU. The coated chip was re-equilibrated with an HBS-P buffer (Biacore Inc.) to which 1 mM CaCl2 and 1 mM MgCl2 (both from Fisher) were added to ensure sufficient calcium for the calcium-dependent interaction between the receptor and the ligand.
Test compounds were incubated for 1 hour in a 1.1× Biacore assay buffer. Each solution was centrifuged through a 0.2 μm filter, using a 96-well plate format (Millipore). Glycyrrhizin tri-sodium salt (TCl) was prepared as a positive control in parallel with the test compounds, in the same manner described above.
A soluble recombinant truncated form of human P-selectin, P-LE, comprised of the lectin and epidermal growth factor-like (EGF) domains expressed in CHO cells (see Somers, et al., Cell, 2000, 103: 467-479) was added to each filtered test compound solution. Final concentrations of reagents were 500 nM P.LE, 250 or 500 μM test compound (depending on structure) or 1 mM glycyrrhizin, 10% DMSO, and 1× Biacore buffer ([…], 150 mM NaCl, 1 mM CaCl2, and 1 mM MgCl2 (all reagents from Fisher)), with a pH of 7.4. Compounds active at 250 μM were titrated to further define activity. Test samples were supplied to the Biacore instrument in a 96-well plate.
The Biacore raw data file was exported as a text file to an Excel spreadsheet, where the buffer blanks bracketing the samples were averaged for each Biacore instrument flow cell (Fc), and subtracted from the averaged uninhibited P.LE samples and from all the other samples. The reference signal from Fc1 (uncoated) was then subtracted from its corresponding active (coated) signal for each injection, a process known as double referencing (see Myszka, J Mol. Recognit., 1999, 12(5): 279-284). The percent inhibition of binding was calculated by dividing the reference-subtracted inhibited signal by the reference-subtracted uninhibited signal, subtracting this value from 1, and multiplying the resulting value by 100. The replicate percent inhibition values were averaged and expressed as the mean±standard deviation. The inter-experiment standard deviation of calculated percent inhibitions in the Biacore assay was ±5.
(In general: Surface plasmon resonance follows binding to a sensor surface in real time, without labels.)
Consider `Cc1ccc2c(C(=O)O)c(O)c(C3Cc4ccccc4C3)nc2c1C` [Compound 3, 3-hydroxy-2-indan-2-yl-7,8-dimethyl-quinolin-4-carboxylicacid], for which testing at 250 µM gave an inhibition of 11%.

Regarding `CC(C)c1cccc2c(C(=O)O)c(O)c(C3Cc4ccccc4C3)nc12` [Compound 4, 3-hydroxy-2-indan-2-yl-8-isopropyl-quinolin-4-carboxylicacid], the inhibition at 250 µM turned out to be 48%.

As to `Cc1ccc2c(C(=O)O)c(O)c(C3Cc4ccccc43)nc2c1C` (stereo not drawn) [Compound 2, 2-(1,2-dihydrocyclobutabenzen-1-yl)-3-hydroxy-7,8-dimethyl-quinolin-4-carboxylic acid], the inhibition at 250 µM came to 17%.

Compound `O=C(O)c1c(O)c(C2Cc3ccccc3C2)nc2c(C(F)(F)F)cccc12` [Compound 5, 3-hydroxy-2-indan-2-yl-8-trifluoromethyl-quinoline-4-carboxylic acid] showed an inhibition at 250 µM of 35%.

Compound `O=C(O)c1c(O)c(C2Cc3ccccc32)nc2c(C(F)(F)F)cccc12` (stereo not drawn) [Compound 1, 2-(1,2-dihydrocyclobutabenzen-1-yl)-3-hydroxy-8-(trifluoro-methyl)quinoline-4-carboxylic acid] came in with an inhibition at 250 µM of 45%.

The assay is the same for the next values; noted with them: positive control in the Biacore assay.
On to `CC1(C)[C@@H](O[C@H]2O[C@H](C(=O)O)[C@@H](O)[C@H](O)[C@H]2O[C@@H]2O[C@H](C(=O)O)[C@@H](O)[C@H](O)[C@H]2O)CC[C@]2(C)[C@H]3C(=O)C=C4[C@@H]5C[C@@](C)(C(=O)O)CC[C@]5(C)CC[C@@]4(C)[C@]3(C)CC[C@@H]12` [Glycyrrhizin, reference compound], for which 1 mM corresponded to half-maximal inhibition (IC50).
